Tests used:
PARP-1 enzyme = PARP-1 enzyme (Homo sapiens (Human), UniProt P09874); assay: PARP-1 enzyme activity test (chemical fluorescence detection kit, BPS Bioscience); assay type: biochemical; details: grades; read-out: PARP-1 enzyme activity IC50
Experimental: PARP-1 chemical fluorescence detection kit was purchased from BPS Bioscience. The histone solution in the kit was diluted 5× with 1×PBS, and 25 μL of the diluted histone solution was added to a microwell plate and incubated overnight at 4° C. After the incubation, the plate was washed three times with PBST (0.05% Tween-20). 100 μL of the blocking solution was added to the microwell plate and incubated at 25° C. for 90 minutes. After the incubation was completed, the plate was washed three times with PBST. 2.5 μL of compounds at different concentrations diluted in test buffer and 12.5 μL of substrate mixed solution (1.25 μL 10×PARP test buffer; 1.25 μL 10×PARP test mixed solution; 2.5 μL Activated DNA, 7.5 μL double-distilled water) were added to the microwell plate. The PARP-1 enzyme was diluted to 2 ng/μL, […] was added to the microwell plate, and the reaction system was incubated at 25° C. for 60 minutes.
After the incubation was completed, the plate was washed three times with PBST. Streptavidin-HRP was diluted 50× with a blocking solution, and 25 μL of the diluent was added to the microwell plate and incubated at 25° C. for 30 minutes. After the incubation, the plate was washed three times with PBST. ELISA ECL substrate A and substrate B were uniformly mixed at a ratio of 1:1 (v/v), 50 μL of the mixture was added to the microwell plate, and the chemiluminescence value was read.
The inhibition rate was calculated according to formula 1, where RLUsample was the readout of the compound well, RLUmax was the readout of the solvent control well, and RLUmin was the readout of the control well without the PARP-1 enzyme. Curve fitting was performed by four parameters (log(inhibitor) vs. response—Variable slope) using GraphPad Prism software, and the ICso value was calculated.
Inhibition %=(1−(RLUsample−RLUmin)/(RLUmax−RLUmin))×100% (formula 1)

MDA-MB-436 cells = assay: MDA-MB-436 cell activity test (CellTiter-Glo, 7 days); assay type: cell-based; details: Homo sapiens
Experimental: Breast tumor cells MDA-MB-436 were purchased from ATCC, the culture medium was Leibovitz's L-15+10% FBS, and the cells were cultured in a CO2-free incubator at 37° C. On day 1, the cells in the exponential growth phase were collected, and the cell suspension was adjusted to 4000 cells/135 μL with the culture medium. 135 μL of the cell suspension was added to each well of a 96-well cell culture plate and incubated overnight. On day 2, compounds at different concentrations were added, and the plate was placed in the incubator and incubated for 7 days. After the incubation was completed, according to operation instructions for a CellTiter-Glo kit (Promega, G7573), 75 μL of CTG solution, which was already pre-melted and equilibrated to room temperature, was added to each well, and the mixture was uniformly mixed for 2 min using a microplate shaker. The plate was placed at room temperature for 10 min, and then […] were measured using an Envision2104 plate reader (PerkinElmer). The inhibition rate was calculated using formula (1), where RLUcompound was the readout of the drug treated group, RLUcontrol was the average value of the vehicle control group, and RLUblank was the average value of the cell-free well. The IC50 value was calculated using GraphPad Prism software

[1] = Pharmacokinetic test in mice; assay type: in vivo, Balb/c mice
Experimental: 4.1 Experimental animal: male Balb/c mice, 20-25 g, 12 mice/compound, purchased from Chengdu Ddossy Experimental Animals Co., Ltd.
4.2 Experimental design: on the day of the test, 60 Balb/c mice were randomly grouped according to their body weights. The animals were fasted with water available for 12 to 14 h one day before the administration and were fed 4 h after the administration.
Before and after the administration, 0.06 mL ofblood was taken from the orbit of the animals under isoflurane anesthesia and placed in an EDTAK2 centrifuge tube. The blood was centrifuged at 5000 rpm and 4° C. for 10 min to collect plasma. The blood collection time points for the intravenous administration group and intragastric administration group were 0, 5 min, 15 min, 30 min, 1 h, 2 h, 4 h, 6 h, 8 h, and 24 h. The brain tissues were collected at 30 min, 2 h and 24 h after administration of compounds 12, 15 and 18, respectively. The brain tissues were collected 24 hours after administration of compounds 2 and 5, rinsed with cold physiological saline to remove the residual blood on the surface, drained out and then homogenized. Before analysis and detection, all samples were stored at −80° C. The samples were analyzed quantitatively by LC-MS/MS.

[2] = Pharmacokinetic test in beagle dogs; assay type: in vivo
Experimental: 5.1 Experimental animal: male beagle dogs, about 8-11 kg, 6 beagle dogs/compound, purchased from Beijing Marshall Biotechnology Co., Ltd.
5.2 Test method: on the day of the experiment, 6 beagle dogs were randomly grouped according to their body weights. The animals were fasted with water available for 12 to 14 h one day before the administration and were fed 4 h after the administration. The administration was performed according to Table 7.
Before and after the administration, 1 ml of blood was taken from the jugular veins or limb veins, and placed in an EDTAK2 centrifuge tube. The blood was centrifuged at 5000 rpm and 4° C. for 10 min to collect plasma. The blood collection time points for the intravenous administration group and intragastric administration group were 0, 5 min, 15 min, 30 min, 1 h, 2 h, 4 h, 6 h, 8 h, 10 h, 12 h, 24 h and 48 h. Before analysis and detection, all samples were stored at −80° C. The samples were analyzed quantitatively by LC-MS/MS.

[3] = male, Balb/c, mouse, iv, mice, i.v. 2.5 mg/kg, plasma
[4] = male, dog, iv, beagle dogs, i.v. (0.2 mg/kg), plasma

PARP-1 enzyme, sequence (P09874 whole entry): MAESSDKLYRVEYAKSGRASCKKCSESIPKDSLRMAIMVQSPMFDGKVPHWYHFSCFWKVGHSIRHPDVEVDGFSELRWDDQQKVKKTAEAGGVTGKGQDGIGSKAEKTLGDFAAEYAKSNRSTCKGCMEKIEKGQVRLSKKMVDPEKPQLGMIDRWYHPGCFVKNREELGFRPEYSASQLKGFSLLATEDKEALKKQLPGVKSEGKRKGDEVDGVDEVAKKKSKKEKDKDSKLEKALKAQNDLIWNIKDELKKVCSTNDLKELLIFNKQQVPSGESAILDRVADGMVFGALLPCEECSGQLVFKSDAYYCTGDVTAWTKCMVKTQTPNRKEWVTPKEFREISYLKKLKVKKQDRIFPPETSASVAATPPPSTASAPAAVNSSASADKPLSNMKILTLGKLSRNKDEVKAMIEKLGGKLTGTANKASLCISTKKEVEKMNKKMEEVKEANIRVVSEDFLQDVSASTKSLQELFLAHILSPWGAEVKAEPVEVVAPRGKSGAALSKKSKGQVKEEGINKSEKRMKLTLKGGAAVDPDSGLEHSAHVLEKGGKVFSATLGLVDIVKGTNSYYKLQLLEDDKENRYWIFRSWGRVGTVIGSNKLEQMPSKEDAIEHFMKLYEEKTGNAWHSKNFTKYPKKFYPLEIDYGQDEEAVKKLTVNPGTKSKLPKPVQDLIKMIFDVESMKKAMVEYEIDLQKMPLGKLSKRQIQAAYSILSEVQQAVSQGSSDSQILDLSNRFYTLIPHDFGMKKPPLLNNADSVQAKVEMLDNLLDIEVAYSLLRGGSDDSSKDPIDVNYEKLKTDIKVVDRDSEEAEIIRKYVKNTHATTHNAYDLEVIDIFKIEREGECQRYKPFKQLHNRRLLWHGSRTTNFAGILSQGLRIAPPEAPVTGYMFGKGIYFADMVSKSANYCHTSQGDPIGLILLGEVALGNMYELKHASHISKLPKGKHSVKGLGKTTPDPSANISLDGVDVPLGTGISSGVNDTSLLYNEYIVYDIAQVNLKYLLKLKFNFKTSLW

Structure (SMILES): O=C(NC1CC1)c1ccc(N2CCN(Cc3ccc4nc(C(F)F)c(=O)[nH]c4c3F)CC2)c(F)n1 [Compound 12, N-cyclopropyl-5-(4-((2-(difluoromethyl)-5-fluoro-3-oxo-3,4-dihydroquinoxalin-6-yl)methyl)piperazin-1-yl)-6-fluoropicolinamide]
- IC50 (PARP-1 enzyme): < 5 nM
- IC50 (MDA-MB-436 cells; MDA-MB-436, 168 h, 7 days incubation): 10.2 nM
- inhibition at 10 µM (MDA-MB-436 cells; 10 μM, MDA-MB-436 cells, read-out: Max inh. % 10 μM): 74.5%
- pharmacokinetic characteristics in mice ([1]; conclusion in words): good pharmacokinetic characteristics
- AUC(0-t) [1, 3]: 19000 ± 3590 ng·h/mL
- clearance [1, 3]: 2.16 ± 0.31 mL/min/kg
- Vd ([1]; male, Balb/c, mouse, iv, mice, i.v. 2.5 mg/kg, plasma, read-out: Vdss): 0.42 ± 0.017 L/kg
- bioavailability ([1]; male, Balb/c, mouse, plasma, po, mice, i.g. 10 mg/kg): ≥ 98%
- AUC(0-t) ([1]; male, Balb/c, mouse, po, mice, i.g. 10 mg/kg, plasma): 80800 ng·h/mL
- pharmacokinetic characteristics in dogs ([2]; conclusion in words): good pharmacokinetic characteristics
- AUC(0-t) [2, 4]: 1950 ± 474 ng·h/mL
- clearance [2, 4]: 3.47 ± 0.98 mL/min/kg
- Vd ([2]; male, dog, iv, beagle dogs, i.v. (0.2 mg/kg), plasma, read-out: Vdss): 1.52 ± 0.45 L/kg
- bioavailability ([2]; male, dog, plasma, po, beagle dogs, i.g. (3 mg/kg)): ≥ 98%
- AUC(0-t) ([2]; male, dog, po, beagle dogs, i.g. (3 mg/kg), plasma): 19000 ± 2890 ng·h/mL

— patent publication US20250346571A1, “BICYCLIC DERIVATIVE PARP INHIBITOR AND USE THEREOF” (XIZANG HAISCO PHARMACEUTICAL CO., LTD., priority 2022, published 2025)
